Laboratory results reported in PubChem BioAssay AID2060360 (Molecular Pharmacology Branch, DTP, NCI, 2025).

Tested on: 282377-053-R-J1-PDC tumor spheroids, viability
Assay: Anticancer human tumor 282377-053-R-J1-PDC patient-derived colon adenocarcinoma cell line growth inhibition [TAK]
Conditions: spheroids with HUVEC and MSC; for IC50: curve of first compound; for viability, T/C: stronger effect = lower value
Text: Combinatorial screen of targeted agents with TAK-243 and ipatasertib in multi-cell type tumor spheroids
A high-throughput screen of multi-cell type tumor spheroids was designed to identify active combinations of targeted small molecules and TAK-243 or ipatasertib. Complex spheroids include a stromal component modeled by human endothelial cells (HUVEC) and fibroblasts modeled by human mesenchymal stem cells (MSCs). The concentration ranges selected for each drug and investigational agent were based upon clinically achievable concentrations if the clinical Cmax of the agent was known.
Compounds. The drugs and investigational agents: TAK-243 (785004), ipatasertib (767898), everolimus (733504), selumetinib (741078), bortezomib (756655), trametinib (758246), ixazomib (758254), vemurafenib (761431), dabrafenib (764134), sapanisertib (764658), alpelisib (765974), and copanlisib (816437), were obtained from the National Cancer Institute (NCI) Developmental Therapeutics Program Chemical Repository. The FDA-approved anticancer drug set is available from the NCI Developmental Therapeutics Program. […] The stock solutions were prepared in dimethyl sulfoxide (DMSO, Sigma-Aldrich, St. Louis, MO, cat. D2650) at 800-fold the tested concentration and stored at -70 degrees C prior to their use. All drugs and investigational agents were tested over a range starting from a high concentration at or near the clinical Cmax and decreasing in half-log increments. If the clinical Cmax for an agent had not been determined, the highest concentration tested was 10 microM.
NCI60 Cell Culture. NCI60 cell lines were obtained from the NCI Developmental Therapeutics Program Tumor Repository. For each lot of cells, the Repository performed Applied Biosystems AmpFLSTR Identifiler testing with PCR amplification to confirm consistency with the published Identifier STR profile for each cell line. Cells were kept in continuous culture for no more than 20 passages. The optimal seeding densities for each of the cell lines at each time point assessed were determined prior to performing the concentration response studies. Briefly, the NCI60 human tumor lines were grown as monolayers in RPMI 1640 medium supplemented with 10% FBS and 2 mmol/L L-glutamine.
An additional 2 lines were from the NCI60 cell line panel including melanomas, MALME-3M and SK-MEL-2. Pooled donor human umbilical vein endothelial cells (HUVEC, Lonza, cat. CC-2519) and human mesenchymal stem cells (hMSC, Lonza, cat. PT-2501) were purchased from Lonza (Walkersville, MD).
PDMR cell lines were grown in complete medium (DC medium): Dulbecco's modified Eagle's medium (DMEM)/F12 supplemented with 5% fetal bovine serum (FBS), 2 mM L-glutamine, 100 U/mL penicillin and 100 µg/ml streptomycin, 0.4 µg/ml hydrocortisone, 10 ng/ml epidermal growth factor (EGF) recombinant human protein, 24 µg/mL adenine, and 0.1 mg/mL primocin. During culture from frozen stock vials, PDMR cells were cultured in the same medium containing 10 µM Y-27632 (see Table 3). The PDCs were cultured in complete DMEM/F12 media without 10 microM Y-27632 dihydrochloride for at least two passages prior to the screen. The pooled donor HUVEC and hMSC were cultured in endothelial cell growth medium 2 (PromoCell, Heidelberg, Germany, cat. C-22011) and mesenchymal stem cell growth medium 2 (PromoCell, cat. C-28009), respectively. For all experiments, HUVEC and hMSC were used at passages </=5.
For the pre-screen, cell seeding densities were determined from a titration spanning the range from 5,000 to 313 cells per well. The mct-spheroids including 60% malignant cells, 25% HUVEC and 15% MSC dispensed as a mixture into U-bottom Ultra-Low Attachment 384-well plates (Corning, NY)
High-throughput Drug Combination Screening.
Prior to their inoculation into 384-well plates, malignant cells, HUVEC, and hMSC were removed from T flasks using TrypLE express (Thermo Fisher Scientific, cat. 12605036) and harvested by centrifugation for 5 min at 233 x g. […]

[1] = second compound 0.3 µM, first compound 0.00949 µM
[2] = second compound 0.3 µM, first compound 0.03 µM
[3] = second compound 0.949 µM, first compound 0.00949 µM
[4] = second compound 0.949 µM, first compound 0.03 µM
[5] = second compound 3 µM, first compound 0.00949 µM
[6] = second compound 3 µM, first compound 0.03 µM
[7] = second compound 9.49 µM, first compound 0.00949 µM
[8] = second compound 9.49 µM, first compound 0.03 µM
[9] = second compound 30 µM, first compound 0.00949 µM
[10] = second compound 30 µM, first compound 0.03 µM
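Also: spheroids exposed to drugs for seven days before readout.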

Compound `CC(=O)Nc1cccc(-n2c(=O)n(C3CC3)c(=O)c3c(Nc4ccc(I)cc4F)n(C)c(=O)c(C)c32)c1` + CC(C)NCC(C(=O)N1CCN(c2ncnc3c2C(C)CC3O)CC1)c1ccc(Cl)cc1 has an IC50 (second compound 0.3 µM) of 2.49 nM, an IC50 (second compound 0.949 µM) of 1.95 nM and an IC50 (second compound 3 µM) of 1.44 nM. The IC50 (second compound 9.49 µM) was 1.54 nM, the IC50 (second compound 30 µM) was 0.516 nM and the viability, T/C (second compound 0.3 µM, first compound 94.9 pM) was 96%. It also gave a viability, T/C (second compound 0.3 µM, first compound 0.0003 µM) of 79%, a viability, T/C (second compound 0.3 µM, first compound 0.000949 µM) of 67.5% and a viability, T/C (second compound 0.3 µM, first compound 0.003 µM) of 49.2%. It also gave a viability, T/C [1] of 24.9%, a viability, T/C [2] of 12.4% and a viability, T/C (second compound 0.949 µM, first compound 94.9 pM) of 86.8%. The viability, T/C (second compound 0.949 µM, first compound 0.0003 µM) was 76.9%, the viability, T/C (second compound 0.949 µM, first compound 0.000949 µM) was 55.2% and the viability, T/C (second compound 0.949 µM, first compound 0.003 µM) was 49.3%. The viability, T/C [3] was 24.8%, the viability, T/C [4] was 11.8% and the viability, T/C (second compound 3 µM, first compound 94.9 pM) was 78.2%. For the same compound, the viability, T/C (second compound 3 µM, first compound 0.0003 µM) was 70.6%, the viability, T/C (second compound 3 µM, first compound 0.000949 µM) was 53.6% and the viability, T/C (second compound 3 µM, first compound 0.003 µM) was 40.8%. For the same compound, the viability, T/C [5] was 26.7%, the viability, T/C [6] was 13.7% and the viability, T/C (second compound 9.49 µM, first compound 94.9 pM) was 75.4%. For the same compound, the viability, T/C (second compound 9.49 µM, first compound 0.0003 µM) was 71.7%, the viability, T/C (second compound 9.49 µM, first compound 0.000949 µM) was 56.8% and the viability, T/C (second compound 9.49 µM, first compound 0.003 µM) was 38.4%. The viability, T/C [7] was 25.9%, the viability, T/C [8] was 12.4% and the viability, T/C (second compound 30 µM, first compound 94.9 pM) was 64%. The viability, T/C (second compound 30 µM, first compound 0.0003 µM) was 58.6%, the viability, T/C (second compound 30 µM, first compound 0.000949 µM) was 41.6% and the viability, T/C (second compound 30 µM, first compound 0.003 µM) was 27%. The viability, T/C [9] was 22.9% and the viability, T/C [10] was 12.3%.

`Cn1cnc2c(F)c(Nc3ccc(Br)cc3Cl)c(C(=O)NOCCO)cc21` + CC(C)NCC(C(=O)N1CCN(c2ncnc3c2C(C)CC3O)CC1)c1ccc(Cl)cc1 gave an IC50 (second compound 0.3 µM) of 396 nM, an IC50 (second compound 0.949 µM) of 190 nM and an IC50 (second compound 3 µM) of 161 nM. For the same compound, the IC50 (second compound 9.49 µM) was 191 nM, the IC50 (second compound 30 µM) was 66 nM and the viability, T/C [1] was 81.5%. It also gave a viability, T/C [2] of 74.4%, a viability, T/C (second compound 0.3 µM, first compound 0.0949 µM) of 63.6% and a viability, T/C (second compound 0.3 µM, first compound 0.3 µM) of 55.6%. The viability, T/C (second compound 0.3 µM, first compound 0.949 µM) was 38.4%, the viability, T/C (second compound 0.3 µM, first compound 3 µM) was 17.4% and the viability, T/C [3] was 82%. It also gave a viability, T/C [4] of 70.9%, a viability, T/C (second compound 0.949 µM, first compound 0.0949 µM) of 56.9% and a viability, T/C (second compound 0.949 µM, first compound 0.3 µM) of 45.6%. For the same compound, the viability, T/C (second compound 0.949 µM, first compound 0.949 µM) was 31.8%, the viability, T/C (second compound 0.949 µM, first compound 3 µM) was 18.9% and the viability, T/C [5] was 77.1%. It also gave a viability, T/C [6] of 70.5%, a viability, T/C (second compound 3 µM, first compound 0.0949 µM) of 54.8% and a viability, T/C (second compound 3 µM, first compound 0.3 µM) of 42.1%. The viability, T/C (second compound 3 µM, first compound 0.949 µM) was 31%, the viability, T/C (second compound 3 µM, first compound 3 µM) was 18.4% and the viability, T/C [7] was 73.4%. The viability, T/C [8] was 72.2%, the viability, T/C (second compound 9.49 µM, first compound 0.0949 µM) was 57% and the viability, T/C (second compound 9.49 µM, first compound 0.3 µM) was 44.3%. It also gave a viability, T/C (second compound 9.49 µM, first compound 0.949 µM) of 30.1%, a viability, T/C (second compound 9.49 µM, first compound 3 µM) of 18.8% and a viability, T/C [9] of 61.5%. For the same compound, the viability, T/C [10] was 59.8%, the viability, T/C (second compound 30 µM, first compound 0.0949 µM) was 45.2% and the viability, T/C (second compound 30 µM, first compound 0.3 µM) was 34.2%. For the same compound, the viability, T/C (second compound 30 µM, first compound 0.949 µM) was 26.4% and the viability, T/C (second compound 30 µM, first compound 3 µM) was 13.2%.
